Measurements: patent US20040266811A1, “Methods for inducing regeneration, remyelination, and hypermyelination of nervous tissue” (priority 2002, published 2004)
pKd: −log10 of the molar value.

Assays:
Schwann cells = assay: cDNA-array analysis of Schwann cell gene expression; assay type: cell-based, Sprague-Dawley rats
Experimental: To generate primary Schwann cells, neonatal Sprague-Dawley rats were sacrificed by decapitation, and 2-cm segments (approximately) of sciatic nerve were excised and placed in ice-cold PBS. Following removal of the epineurium, the nerves were pooled and placed in Hank's balanced salt solution containing 0.1% trypsin for 30 min at 37° C. Subsequently, partially-dissociated cells were plated onto polylysine/laminin-coated tissue culture plates, and enriched Schwann cells were further purified by the activation of anti-Thy 1.1 monoclonal antibodies and complement, in order to lyse proliferating fibroblasts (Wu and Weinstein, “Isolation and Purification of Primary Schwann Cells”, in Current Protocols in Neuroscience, Crawley et al., eds. (New York, N.Y.: John Wiley & Sons, 1999). The Schwann cells were maintained in DMEM containing 10% FCS supplemented with 50 ng/ml GGF and 2 μg/ml forskolin. However, these latter compounds were removed 48 h prior to the addition of immunophilin ligands. For the Schwann cell/PC12 co-cultures, monolayers of Schwann cells were prepared and overlaid with pCX-expressing PC12 cells, and cultures were incubated in the presence of either 100 ng/ml NGF or 1 μg/ml GM-284 for 48 h.
To test the former hypothesis, the inventors starved Schwann cells of growth factor for 48 h, then treated the cells for either 4 h or 48 h with a 1-μM dose of GM-284. RNA was harvested from the treated cells and from control (vehicle-treated) Schwann cells, and then prepared for cDNA-array analysis. Experimental details of the preparation of the RNA, and the methods for conducting the hybridization, washing, and scanning, are posted at the following http website: //sequence.aecom.yu.edu/bioinf/funcgenomic.html.
Total RNA was isolated, and prepared for cDNA microarray analysis as described (Peng et al., Microarray analysis of global changes in gene expression during cardiac myocyte differentiation. Physiol. Genomics, 9(3):145-55, 2002).

recombinant FKBP52 = target: T1, recombinant FKBP52 (Homo sapiens, UniProt Q02790); assay: Tryptophan fluorescence (QTFS) binding to recombinant FKBP52
T1 construct: other: QTFS, 18° C., unit not given; dissociation constant (kd) for FKBP52 by QTFS; other: QTFS; fused on or other part: probably GST at the N-terminus (pGEX-6p), as in b91 and the GST-alone control of b31
T1 sequence (Q02790 1-459): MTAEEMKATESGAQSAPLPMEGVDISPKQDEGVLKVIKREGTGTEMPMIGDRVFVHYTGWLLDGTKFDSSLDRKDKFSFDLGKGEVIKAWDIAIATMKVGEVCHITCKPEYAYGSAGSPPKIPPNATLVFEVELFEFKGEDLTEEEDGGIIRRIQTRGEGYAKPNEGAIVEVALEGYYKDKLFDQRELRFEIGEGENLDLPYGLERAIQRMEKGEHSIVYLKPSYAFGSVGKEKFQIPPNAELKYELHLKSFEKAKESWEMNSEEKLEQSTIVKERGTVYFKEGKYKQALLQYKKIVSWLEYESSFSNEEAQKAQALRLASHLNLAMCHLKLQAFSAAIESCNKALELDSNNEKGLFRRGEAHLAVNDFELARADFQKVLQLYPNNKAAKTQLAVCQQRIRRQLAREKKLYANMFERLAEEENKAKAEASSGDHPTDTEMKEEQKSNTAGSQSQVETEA

[1] = system: PC12 cells co-cultured on monolayers of Schwann cells; assay: GFP-PC12 / Schwann cell co-culture neurite outgrowth; assay type: cell-based, Sprague-Dawley rats (Schwann cells); conditions: GM-284, 48 h
Experimental: Wild-type and TrkA-overexpressing PC12 cells (Hempstead et al., Overexpression of the trk tyrosine kinase rapidly accelerates nerve growth factor-induced differentiation. Neuron, 9:883-96, 1992) were maintained in DMEM supplemented with 10% calf serum and 5% horse serum, the latter of which was also supplemented with 200 μg/ml G418 to maintain TrkA selection. Cultures were treated with 100 ng/ml NGF or the immunophilin ligands, or treated with Schwann-cell-conditioned medium supplemented with 5% horse serum, as indicated below. To generate GFP-expressing PC12 cells, a bicistronic pCX-bsr retroviral vector (Escalante et al., Phosphorylation of c-Crk II on the negative regulatory Tyr222 mediates nerve growth factor-induced cell spreading and morphogenesis. J. Biol. Chem., 275:24787-797, 2000), which drives expression of green fluorescent protein (GFP), was used to infect dividing PC12 cells.
GFP-expressing virus was produced by lipofectamine-mediated transfection of 1.0 μg of pCX-bsr DNA, together with 1.0 μg of pC-Eco retroviral DNA, into the Bosc23 replication-incompetent ecotropic packaging line (Retromax™, Imgen), according to the manufacturer's protocols. The transfection medium was replaced with 10 ml of DMEM containing 10% fetal calf serum, for 24 h, and then collected and frozen at −70° C. The cells were re-fed with fresh DMEM (10 ml), and maintained for an additional 16 h. […]

Structure (SMILES): CCC(C)(C)C(=O)C(=O)N1CCC[C@H]1c1nnc([C@@H]2CCCN2C(=O)C(=O)C(C)(C)CC)o1 [GM-284]
- ESTs upregulated (Schwann cells; 1 μM GM-284, 4 hours): 15
- Known genes upregulated (Schwann cells; 1 μM GM-284, 4 hours): 11
- Selected upregulated genes (Schwann cells; 1 μM GM-284, 4 hours): Cytokeratin 19 and Fibrillin 2 (fbn2) and IFNγ inducible and CD14 and Estradiol dehydrogenase
- Total upregulated genes (Schwann cells; 1 μM GM-284, 4 hours): 26
- ESTs upregulated (Schwann cells; 1 μM GM-284, 48 hours): 77
- Known genes upregulated (Schwann cells; 1 μM GM-284, 48 hours): 32
- Total upregulated genes (Schwann cells; 1 μM GM-284, 48 hours): 109
- disassociation constant (kd), binding affinity for recombinant FKBP52 (recombinant FKBP52; 18° C., unit not given): 139±16.2
- pKd (recombinant FKBP52; read-out: dissociation constant (kd) for FKBP52 by QTFS): 6.86
- neuritogenesis of PC12 cells co-cultured with Schwann cells [1]: extensive neuritogenesis
